In ChEMBL document CHEMBL4028802, “DILIrank: the largest reference drug list ranked by the risk for developing drug-induced liver injury in humans” (Drug Discov Today, 2016):

Legend:
Homo sapiens [1] = species on record: Homo sapiens; test: Liver toxicity in human assessed as induction of drug-induced liver injury by measuring verified drug-induced liver injury concern status
Homo sapiens [2] = species on record: Homo sapiens; test: Liver toxicity in human assessed as induction of drug-induced liver injury by measuring severity class index
For DILI severity class in this document: key of the grades not given here.

Molecule | DILI_Concern (Homo sapiens [1]) | DILI_severity_class (Homo sapiens [2])
Cc1nccn1CC1CCc2c(c3ccccc3n2C)C1=O (stereo not given) [ONDANSETRON] | Less-Dili-Concern | 7
CC(C)CN(C[C@@H](O)[C@H](Cc1ccccc1)NC(=O)O[C@H]1CCOC1)S(=O)(=O)c1ccc(N)cc1 | Ambiguous-Dili-Concern | 3
COc1cc([C@@H]2c3cc4c(cc3[C@@H](O[C@@H]3O[C@@H]5CO[C@@H](C)O[C@H]5[C@H](O)[C@H]3O)[C@H]3COC(=O)[C@H]23)OCO4)cc(OC)c1O [ETOPOSIDE] | Less-Dili-Concern | 3
CN1CCc2cccc3c2[C@H]1Cc1ccc(O)c(O)c1-3 [APOMORPHINE] | No-Dili-Concern | 0
CC(=O)Oc1ccccc1C(=O)Nc1ncc([N+](=O)[O-])s1 [NITAZOXANIDE] | No-Dili-Concern | 0
CN(C)CCCN1c2ccccc2Sc2ccc(Cl)cc21 [CHLORPROMAZINE] | Less-Dili-Concern | 2
CNC1(C)C2CCC(C2)C1(C)C (stereo not given) [MECAMYLAMINE] | No-Dili-Concern | 0
CSCC[C@H](NC(=O)[C@H](Cc1ccc(OS(=O)(=O)O)cc1)NC(=O)[C@@H](N)CC(=O)O)C(=O)NCC(=O)N[C@@H](Cc1c[nH]c2ccccc12)C(=O)N[C@@H](CCSC)C(=O)N[C@@H](CC(=O)O)C(=O)N[C@@H](Cc1ccccc1)C(N)=O [SINCALIDE] | No-Dili-Concern | 0
COc1ccccc1OCC(O)COC(N)=O (stereo not given) [METHOCARBAMOL] | Ambiguous-Dili-Concern | 5
CN(C)[C@@H]1C(O)=C(C(N)=O)C(=O)[C@@]2(O)C(O)=C3C(=O)c4c(O)ccc(Cl)c4[C@@H](O)[C@H]3C[C@@H]12 [DEMECLOCYCLINE] | Ambiguous-Dili-Concern | 3
COc1cc2nc(N3CCN(C(=O)c4ccco4)CC3)nc(N)c2cc1OC [PRAZOSIN] | Ambiguous-Dili-Concern | 3
Cc1onc(-c2ccccc2Cl)c1C(=O)N[C@@H]1C(=O)N2[C@@H]1SC(C)(C)[C@@H]2C(=O)O [CLOXACILLIN] | Less-Dili-Concern | 3
CC[C@H](C)[C@H](NC(=O)[C@@H]1CCCN1C(=O)CNC(=O)[C@H](Cc1ccccc1)NC(=O)[C@H](CC(N)=O)NC(=O)[C@H](CC(N)=O)NC(=O)[C@H](CO)NC(=O)[C@H](CO)NC(=O)[C@H](Cc1c[nH]cn1)NC(=O)[C@@H](NC(=O)[C@H](CC(C)C)NC(=O)[C@H](Cc1ccccc1)NC(=O)[C@H](CC(N)=O)NC(=O)[C@H](C)NC(=O)[C@H](CC(C)C)NC(=O)[C@H](CCCNC(=N)N)NC(=O)[C@H](CCC(N)=O)NC(=O)[C@@H](NC(=O)[C@H](C)NC(=O)[C@@H]1CSSC[C@H](NC(=O)[C@@H](N)CCCCN)C(=O)N[C@@H](CC(N)=O)C(=O)N[C@@H]([C@@H](C)O)C(=O)N[C@@H](C)C(=O)N[C@@H]([C@@H](C)O)C(=O)N1)[C@@H](C)O)C(C)C)C(=O)N[C@@H](CC(C)C)C(=O)N1CCC[C@H]1C(=O)N1CCC[C@H]1C(=O)N[C@H](C(=O)N[C@@H](CC(N)=O)C(=O)N[C@H](C(=O)NCC(=O)N[C@@H](CO)C(=O)N[C@@H](CC(N)=O)C(=O)N[C@H](C(=O)N[C@@H](Cc1ccc(O)cc1)C(N)=O)[C@@H](C)O)C(C)C)[C@@H](C)O [PRAMLINTIDE] | No-Dili-Concern | 0
O=C(COc1ccc(Cl)cc1)N1CCN(Cc2ccc3c(c2)OCO3)CC1 [FIPEXIDE] | Most-Dili-Concern | 8
C#C[C@]1(O)CC[C@H]2[C@@H]3CCC4=CC(=O)CC[C@@H]4[C@H]3C(=C)C[C@@]21CC [ETONOGESTREL] | Ambiguous-Dili-Concern | 5
Cc1cccc(Nc2ccncc2S(=O)(=O)NC(=O)NC(C)C)c1 [TORSEMIDE] | Ambiguous-Dili-Concern | 2
BLEOMYCIN | Ambiguous-Dili-Concern | 3
COC(=O)Nc1nc2ccc(C(=O)c3ccccc3)cc2[nH]1 [MEBENDAZOLE] | Less-Dili-Concern | 3
CCCC1O[C@@H]2C[C@H]3[C@@H]4CCC5=CC(=O)C=C[C@]5(C)[C@H]4[C@@H](O)C[C@]3(C)[C@]2(C(=O)CO)O1 (stereo not given in full) [BUDESONIDE] | No-Dili-Concern | 0
CO[C@H]1/C=C/O[C@@]2(C)Oc3c(C)c(O)c4c(O)c(c(/C=N/N5CCN(C6CCCC6)CC5)c(O)c4c3C2=O)NC(=O)/C(C)=C\C=C\[C@H](C)[C@H](O)[C@@H](C)[C@@H](O)[C@@H](C)[C@H](OC(C)=O)[C@@H]1C [RIFAPENTINE] | Ambiguous-Dili-Concern | 4
C[C@]12C=CC(=O)C=C1CC[C@@H]1[C@@H]2C(=O)C[C@@]2(C)[C@H]1CC[C@]2(O)C(=O)CO [PREDNISONE] | Less-Dili-Concern | 3
CC[C@H](C)C(=O)O[C@H]1C[C@H](O)C=C2C=C[C@H](C)[C@H](CC[C@@H](O)C[C@@H](O)CC(=O)O)[C@H]21 [PRAVASTATIN] | Less-Dili-Concern | 3
N[C@@H](CS)C(=O)O [CYSTEINE] | Ambiguous-Dili-Concern | 3
CC(C)Cc1ccc(C(C)C(=O)O)cc1 (stereo not given) [IBUPROFEN] | Less-Dili-Concern | 3
COc1ccccc1OCCNCC(O)COc1cccc2[nH]c3ccccc3c12 (stereo not given) [CARVEDILOL] | Less-Dili-Concern | 3

Molecule | DILI_Concern (Homo sapiens [1]) | DILI_severity_class (Homo sapiens [2])
CN1CCCC(CN2c3ccccc3Sc3ccccc32)C1 (stereo not given) [MEPAZINE] | Most-Dili-Concern | 8
COc1ccnc(C[S+]([O-])c2nc3ccc(OC(F)F)cc3[nH]2)c1OC (stereo not given) [PANTOPRAZOLE] | Less-Dili-Concern | 3
CN[C@@H](C)[C@@H](O)c1ccccc1 [PSEUDOEPHEDRINE] | No-Dili-Concern | 0
CC[N+](C)(C)c1cccc(O)c1 [EDROPHONIUM] | No-Dili-Concern | 0
CCC(=O)O[C@@H](O[P@](=O)(CCCCc1ccccc1)CC(=O)N1C[C@H](C2CCCCC2)C[C@H]1C(=O)O)C(C)C [FOSINOPRIL] | Less-Dili-Concern | 3
O=c1[nH]c2ccccc2n1C1CCN(CCCC(c2ccc(F)cc2)c2ccc(F)cc2)CC1 [PIMOZIDE] | No-Dili-Concern | 0
CCCCCCCCNC(C)C(O)c1ccc(SC(C)C)cc1 (stereo not given) [SULOCTIDIL] | Most-Dili-Concern | 8
CCCC(C)(COC(N)=O)COC(=O)NC(C)C (stereo not given) [CARISOPRODOL] | No-Dili-Concern | 0
Cc1ccc(C(=O)c2cc(O)c(O)c([N+](=O)[O-])c2)cc1 [TOLCAPONE] | Most-Dili-Concern | 8
COc1ccc2c3c1O[C@H]1C[C@@H](O)C=C[C@@]31CCN(C)C2 [GALANTAMINE] | Ambiguous-Dili-Concern | 3
CCN(CC)CCN1C(=O)CN=C(c2ccccc2F)c2cc(Cl)ccc21 [FLURAZEPAM] | Less-Dili-Concern | 4
O=[N+]([O-])O[C@@H]1CO[C@H]2[C@@H]1OC[C@H]2O | Ambiguous-Dili-Concern | 3
CC(=O)[O-].CC(=O)[O-].[Ca+2] [CALCIUM ACETATE] | No-Dili-Concern | 0
NCC[C@H](O)C(=O)N[C@@H]1C[C@H](N)[C@@H](O[C@H]2O[C@H](CN)[C@@H](O)[C@H](O)[C@H]2O)[C@H](O)[C@H]1O[C@H]1O[C@H](CO)[C@@H](O)[C@H](N)[C@H]1O [AMIKACIN] | No-Dili-Concern | 0
Cc1cnc(NC(=O)C2=C(O)c3ccccc3S(=O)(=O)N2C)s1 [MELOXICAM] | Less-Dili-Concern | 3
Cc1nc([N+](=O)[O-])cn1-c1ccc([N+](=O)[O-])cc1 [NITREFAZOLE] | Most-Dili-Concern | 8
C[C@H](CCC(=O)O)[C@H]1CC[C@H]2[C@@H]3[C@@H](O)C[C@@H]4C[C@H](O)CC[C@]4(C)[C@H]3CC[C@]12C [URSODIOL] | Ambiguous-Dili-Concern | 0
COc1ccccc1OCC(O)CN1CCN(CC(=O)Nc2c(C)cccc2C)CC1 (stereo not given) [RANOLAZINE] | No-Dili-Concern | 0
N#Cc1ccc(C(c2ccc(C#N)cc2)n2cncn2)cc1 [LETROZOLE] | Less-Dili-Concern | 2
CO/N=C(\C(=O)N[C@@H]1C(=O)N2C(C(=O)O)=C(CSc3nc(=O)c(=O)[nH]n3C)CS[C@H]12)c1csc(N)n1 [CEFTRIAXONE] | Less-Dili-Concern | 4
CC[C@@H](C(N)=O)N1CCCC1=O | Less-Dili-Concern | 8
C1N2CN3CN1CN(C2)C3.O=C(O)CNC(=O)c1ccccc1 [METHENAMINE HIPPURATE] | Ambiguous-Dili-Concern | 3
CN(C)CC[C@@H](c1ccc(Cl)cc1)c1ccccn1 [DEXCHLORPHENIRAMINE] | No-Dili-Concern | 0
CCC[C@@]1(CCc2ccccc2)CC(O)=C([C@H](CC)c2cccc(NS(=O)(=O)c3ccc(C(F)(F)F)cn3)c2)C(=O)O1 | Most-Dili-Concern | 8
OCCN1CCN(CCCN2c3ccccc3Sc3ccc(C(F)(F)F)cc32)CC1 [FLUPHENAZINE] | Ambiguous-Dili-Concern | 3
